Several values for one entry are separate records, joined by “and”; a condition that tells them apart may be missing. Equal entries are not always repeated. Toxic doses and inconclusive results are not listed.
System: BDF1 mice, P388 leukemia ip, median survival T/C
Assay: NCI In Vivo Anticancer Drug Screen. Data for tumor model P388 Leukemia (intraperitoneal) in B6D2F1 (BDF1) mice
Conditions: endpoint: median survival time, higher = longer survival
How it was run: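 T/C = treated-group survival ÷ vehicle-control survival; tumour transplanted into mice before dosing.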

[1] = dose: 25.0 mg/kg/injection, schedule: Q01DX009 (ip), vehicle: saline with Tween-80
[2] = dose: 100.0 mg/kg/injection, schedule: Q01DX009 (ip), vehicle: saline with Tween-80
[3] = dose: 25.0 mg/kg/injection, schedule: Q01DX009 (ip), vehicle: Klucel (hydroxypropylcellulose) (HPC)
[4] = dose: 50.0 mg/kg/injection, schedule: Q01DX009 (ip), vehicle: Klucel (hydroxypropylcellulose) (HPC)
[5] = dose: 100.0 mg/kg/injection, schedule: Q01DX009 (ip), vehicle: Klucel (hydroxypropylcellulose) (HPC)
[6] = dose: 100.0 mg/kg/injection, schedule: Q04DX003 (ip), vehicle: Klucel (hydroxypropylcellulose) (HPC)
[7] = dose: 200.0 mg/kg/injection, schedule: Q04DX003 (ip), vehicle: Klucel (hydroxypropylcellulose) (HPC)
[8] = dose: 400.0 mg/kg/injection, schedule: Q04DX003 (ip), vehicle: Klucel (hydroxypropylcellulose) (HPC)
[9] = dose: 100.0 mg/kg/injection, schedule: Q04DX003 (ip), vehicle: saline
[10] = dose: 200.0 mg/kg/injection, schedule: Q04DX003 (ip), vehicle: saline
[11] = dose: 400.0 mg/kg/injection, schedule: Q04DX003 (ip), vehicle: saline
[12] = dose: 50.0 mg/kg/injection, schedule: Q01DX009 (ip), vehicle: saline with Tween-80
[13] = dose: 400.0 mg/kg/injection, schedule: Q01DX009 (ip), vehicle: saline with Tween-80
[14] = dose: 200.0 mg/kg/injection, schedule: Q01DX009 (ip), vehicle: saline with Tween-80

`Cc1nc[nH]c1[N+](=O)[O-]` was tested, and the T/C [1] was 100 % of control and the T/C [2] was 86 % of control.
For `O=C(Nc1ccc(Cl)c(Cl)c1)O/N=C/c1ccccn1`, the T/C (dose: 100.0 mg/kg/injection, schedule: Q04DX003 (ip), vehicle: saline with Tween-80) was 100 % of control, the T/C (dose: 200.0 mg/kg/injection, schedule: Q04DX003 (ip), vehicle: saline with Tween-80) was 90 % of control and the T/C (dose: 400.0 mg/kg/injection, schedule: Q04DX003 (ip), vehicle: saline with Tween-80) was 95 % of control.
For `COc1cc([C@@H]2c3cc4c(c(O)c3C[C@H]3COC(=O)[C@@H]32)OCO4)cc(OC)c1OC`, the T/C (dose: 0.5 mg/kg/injection, schedule: Q01DX001 (ip), vehicle: other) was 115 % of control, the T/C (dose: 0.5 mg/kg/injection, schedule: Q01DX001 (ip), vehicle: saline) was 90 % of control and the T/C (dose: 0.5 mg/kg/injection, schedule: Q01DX010 (ip), vehicle: other) was 122 % of control. For the same compound, the T/C (dose: 1.0 mg/kg/injection, schedule: Q01DX001 (ip), vehicle: other) was 121 % of control, the T/C (dose: 1.0 mg/kg/injection, schedule: Q01DX001 (ip), vehicle: saline) was 109 % of control and the T/C (dose: 1.0 mg/kg/injection, schedule: Q01DX010 (ip), vehicle: other) was 150 % of control. The T/C (dose: 2.0 mg/kg/injection, schedule: Q01DX001 (ip), vehicle: saline) was 118 % of control, the T/C (dose: 2.0 mg/kg/injection, schedule: Q01DX010 (ip), vehicle: other) was 168 % of control and the T/C (dose: 2.0 mg/kg/injection, schedule: Q01DX010 (ip), vehicle: saline) was 104 % of control. The T/C (dose: 4.0 mg/kg/injection, schedule: Q01DX001 (ip), vehicle: saline) was 118 % of control.
For `CSC(=S)N/N=C(\C)C1CCCC[N-]1.[I][Zn][I]` (centres undefined), the T/C (dose: 12.5 mg/kg/injection, schedule: Q01DX009 (ip), vehicle: saline with Tween-80) was 109 % of control and 110 % of control and 115 % of control, the T/C [1] was 109 % of control (2×) and 117 % of control and the T/C [2] was 118 % of control.
For `C[C@]12CCC(=O)C=C1CC[C@H]1[C@@H]3CC[C@@]4(OCC4=O)[C@@]3(C)C[C@H](O)[C@@]12F`, the T/C [3] was 96 % of control, the T/C [4] was 104 % of control and the T/C [5] was 104 % of control. For the same compound, the T/C [6] was 104 % of control, the T/C [7] was 112 % of control and the T/C [8] was 108 % of control.
For `O=S(=O)(O)CNc1ccccc1`, the T/C [9] was 100 % of control, the T/C [10] was 109 % of control and the T/C [11] was 95 % of control.
`CC(=O)Nc1onc(C)c1[N+](=O)[O-]` was tested, and the T/C (dose: 100.0 mg/kg/injection, schedule: Q01DX009 (ip), vehicle: saline) was 100 % of control, the T/C [9] was 104 % of control and the T/C (dose: 200.0 mg/kg/injection, schedule: Q01DX009 (ip), vehicle: saline) was 100 % of control. For the same compound, the T/C [10] was 109 % of control, the T/C (dose: 400.0 mg/kg/injection, schedule: Q01DX009 (ip), vehicle: saline) was 104 % of control and the T/C [11] was 109 % of control.
For `O=C(Oc1cc(Cl)ccc1Cl)c1ccccc1`, the T/C [12] was 122 % of control, the T/C [2] was 89 % of control and the T/C [13] was 89 % of control.
`COC1=C(OC)C23CCc4ccc(OC)c(O)c4C2(CCN3C)CC1=O` (centres undefined) was tested, and the T/C (dose: 50.0 mg/kg/injection, schedule: Q01DX010 (ip), vehicle: carboxymethylcellulose (CMC)) was 88 % of control and the T/C (dose: 100.0 mg/kg/injection, schedule: Q01DX010 (ip), vehicle: carboxymethylcellulose (CMC)) was 100 % of control.
In the case of `Cc1ccc(NC(=O)Nc2ccccc2Cl)cc1Cl`, the T/C [9] is reported as 104 % of control, the T/C [10] is reported as 95 % of control and the T/C [11] is reported as 95 % of control.
With `Cc1cc2c(c(O)c1CN1CCOCC1)C1=C(CCCC1)C(C)(C)O2` the T/C (dose: 1.0 mg/kg/injection, schedule: Q01DX001 (ip), vehicle: Klucel (hydroxypropylcellulose) (HPC)) was 99 % of control, the T/C (dose: 2.0 mg/kg/injection, schedule: Q01DX001 (ip), vehicle: Klucel (hydroxypropylcellulose) (HPC)) was 112 % of control and the T/C (dose: 4.0 mg/kg/injection, schedule: Q01DX001 (ip), vehicle: Klucel (hydroxypropylcellulose) (HPC)) was 104 % of control. For the same compound, the T/C (dose: 8.0 mg/kg/injection, schedule: Q01DX001 (ip), vehicle: Klucel (hydroxypropylcellulose) (HPC)) was 104 % of control, the T/C (dose: 16.0 mg/kg/injection, schedule: Q01DX001 (ip), vehicle: Klucel (hydroxypropylcellulose) (HPC)) was 109 % of control and the T/C (dose: 32.0 mg/kg/injection, schedule: Q01DX001 (ip), vehicle: Klucel (hydroxypropylcellulose) (HPC)) was 98 % of control. The T/C (dose: 64.0 mg/kg/injection, schedule: Q01DX001 (ip), vehicle: Klucel (hydroxypropylcellulose) (HPC)) was 96 % of control, the T/C (dose: 128.0 mg/kg/injection, schedule: Q01DX001 (ip), vehicle: Klucel (hydroxypropylcellulose) (HPC)) was 106 % of control and the T/C (dose: 256.0 mg/kg/injection, schedule: Q01DX001 (ip), vehicle: Klucel (hydroxypropylcellulose) (HPC)) was 98 % of control.
For `CC(=O)O.CC(=O)O.[NH-]C(CCC(N)=O)C(=O)O.[NH-]C(CCC(N)=O)C(=O)O.[Ni+2]` (centres undefined), the T/C (dose: 12.5 mg/kg/injection, schedule: Q01DX009 (ip), vehicle: saline) was 104 % of control and the T/C (dose: 25.0 mg/kg/injection, schedule: Q01DX009 (ip), vehicle: saline) was 93 % of control.
In the case of `C(#CCN1CCOCC1)CCCN1CCOCC1`, the T/C [9] is reported as 95 % of control, the T/C [10] is reported as 100 % of control and the T/C [11] is reported as 100 % of control.
For `CC1(c2ccco2)NC(=O)NC1=O` (centres undefined), the T/C [2] was 105 % of control, the T/C [14] was 105 % of control and the T/C [13] was 105 % of control.
For `C[N+](C)(C)c1ccc2c(c1)CCC/C2=N\N`, the T/C (dose: 6.25 mg/kg/injection, schedule: Q04DX003 (ip), vehicle: saline with Tween-80) was 94 % of control.
For `CCOC(=O)/C(C#N)=C1/CCCN1`, the T/C [2] was 104 % of control, the T/C [14] was 100 % of control and the T/C [13] was 100 % of control.
With `CC(C)OC(CCC#N)c1ccccc1` (centres undefined) the T/C [5] was 100 % of control, the T/C [6] was 95 % of control and the T/C (dose: 200.0 mg/kg/injection, schedule: Q01DX009 (ip), vehicle: Klucel (hydroxypropylcellulose) (HPC)) was 100 % of control. For the same compound, the T/C [7] was 104 % of control and the T/C [8] was 109 % of control.
With `C=C1C(=O)OC2C3OC(C)(CCC(OC(C)=O)C3COC(C)=O)CC(OC(=O)/C(=C\C)COC(C)=O)C12` (centres undefined) the T/C [3] was 106 % of control, the T/C [4] was 106 % of control and the T/C [5] was 118 % of control.
In the case of `O=[N+]([O-])c1ccccc1N/N=C\c1c(Cl)[nH]c2ccccc12`, the T/C (dose: 200.0 mg/kg/injection, schedule: Q04DX002 (ip), vehicle: Klucel (hydroxypropylcellulose) (HPC)) is reported as 90 % of control and the T/C (dose: 400.0 mg/kg/injection, schedule: Q04DX002 (ip), vehicle: Klucel (hydroxypropylcellulose) (HPC)) is reported as 90 % of control.
`CC(=O)Nc1cc(NC(C)=O)cc(N(CCO)CCO)c1` was tested, and the T/C (dose: 3.12 mg/kg/injection, schedule: Q01DX009 (ip), vehicle: water) was 99 % of control, the T/C (dose: 6.25 mg/kg/injection, schedule: Q01DX009 (ip), vehicle: water) was 90 % of control and 111 % of control and the T/C (dose: 12.5 mg/kg/injection, schedule: Q01DX009 (ip), vehicle: water) was 93 % of control and 101 % of control. For the same compound, the T/C (dose: 25.0 mg/kg/injection, schedule: Q01DX009 (ip), vehicle: water) was 97 % of control and 101 % of control, the T/C (dose: 25.0 mg/kg/injection, schedule: Q04DX003 (ip), vehicle: water) was 89 % of control and the T/C (dose: 50.0 mg/kg/injection, schedule: Q01DX009 (ip), vehicle: water) was 117 % of control. For the same compound, the T/C (dose: 50.0 mg/kg/injection, schedule: Q04DX003 (ip), vehicle: water) was 100 % of control, the T/C (dose: 100.0 mg/kg/injection, schedule: Q04DX003 (ip), vehicle: water) was 104 % of control and the T/C (dose: 200.0 mg/kg/injection, schedule: Q04DX003 (ip), vehicle: water) was 112 % of control. The T/C (dose: 400.0 mg/kg/injection, schedule: Q04DX003 (ip), vehicle: water) was 108 % of control.
In the case of `C/C(=C\c1ccc(Cl)cc1)C(C)(C)C(=O)O`, the T/C [12] is reported as 104 % of control, the T/C [2] is reported as 102 % of control and the T/C [14] is reported as 95 % of control.
For `CCC1NC(=O)C(NC(=O)c2ncccc2O)C(C)OC(=O)C(c2ccccc2)NC(=O)C2CC(=O)CCN2C(=O)C(Cc2ccccc2)N(C)C(=O)C2CCCN2C1=O` (centres undefined) (tested in a mixture with another compound), the T/C (dose: 18.75 mg/kg/injection, schedule: Q01DX009 (ip), vehicle: Klucel (hydroxypropylcellulose) (HPC)) was 99 % of control, the T/C (dose: 37.5 mg/kg/injection, schedule: Q01DX009 (ip), vehicle: Klucel (hydroxypropylcellulose) (HPC)) was 105 % of control and the T/C (dose: 75.0 mg/kg/injection, schedule: Q01DX009 (ip), vehicle: Klucel (hydroxypropylcellulose) (HPC)) was 111 % of control.
`O=Nc1ccc(O)c2ncccc12` was tested, and the T/C (dose: 50.0 mg/kg/injection, schedule: Q01DX001 (ip), vehicle: Klucel (hydroxypropylcellulose) (HPC)) was 118 % of control.

— PubChem BioAssay AID328 (DTP/NCI, 2004)
